What was measured:
Adenosine receptor A2a = Adenosine receptor A2a (Homo sapiens, UniProt P29274)
[1] = molecular target: T1, Neuropeptide Y receptor type 1 (Homo sapiens, UniProt P25929)
T1 sequence (P25929 whole entry): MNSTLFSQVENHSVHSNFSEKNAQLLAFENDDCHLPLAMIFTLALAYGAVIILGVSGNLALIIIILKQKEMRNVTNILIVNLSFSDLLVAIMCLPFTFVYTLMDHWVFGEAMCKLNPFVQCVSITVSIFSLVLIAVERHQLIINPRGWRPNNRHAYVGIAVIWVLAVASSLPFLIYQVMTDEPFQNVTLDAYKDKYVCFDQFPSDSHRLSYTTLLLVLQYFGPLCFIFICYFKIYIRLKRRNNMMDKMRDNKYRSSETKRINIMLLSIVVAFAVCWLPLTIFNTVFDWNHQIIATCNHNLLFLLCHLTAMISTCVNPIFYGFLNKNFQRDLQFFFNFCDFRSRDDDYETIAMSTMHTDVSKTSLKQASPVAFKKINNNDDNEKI

[2] = molecular target: Growth hormone secretagogue receptor type 1 (Homo sapiens, UniProt Q92847)
Sequence of Growth hormone secretagogue receptor type 1 (Q92847 whole entry): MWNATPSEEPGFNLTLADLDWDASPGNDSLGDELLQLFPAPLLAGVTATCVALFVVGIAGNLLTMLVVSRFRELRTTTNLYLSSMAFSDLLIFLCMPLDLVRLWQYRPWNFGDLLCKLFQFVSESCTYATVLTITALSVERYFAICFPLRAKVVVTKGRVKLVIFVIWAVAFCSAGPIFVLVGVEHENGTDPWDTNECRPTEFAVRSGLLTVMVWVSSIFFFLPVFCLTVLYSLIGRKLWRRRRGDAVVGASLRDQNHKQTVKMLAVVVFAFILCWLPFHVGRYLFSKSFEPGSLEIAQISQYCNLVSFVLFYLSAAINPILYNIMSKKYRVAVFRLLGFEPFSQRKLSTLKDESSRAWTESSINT

D(1A) dopamine receptor = D(1A) dopamine receptor (Homo sapiens, UniProt P21728); format: functional, cell-based
Sequence of D(1A) dopamine receptor (P21728 whole entry): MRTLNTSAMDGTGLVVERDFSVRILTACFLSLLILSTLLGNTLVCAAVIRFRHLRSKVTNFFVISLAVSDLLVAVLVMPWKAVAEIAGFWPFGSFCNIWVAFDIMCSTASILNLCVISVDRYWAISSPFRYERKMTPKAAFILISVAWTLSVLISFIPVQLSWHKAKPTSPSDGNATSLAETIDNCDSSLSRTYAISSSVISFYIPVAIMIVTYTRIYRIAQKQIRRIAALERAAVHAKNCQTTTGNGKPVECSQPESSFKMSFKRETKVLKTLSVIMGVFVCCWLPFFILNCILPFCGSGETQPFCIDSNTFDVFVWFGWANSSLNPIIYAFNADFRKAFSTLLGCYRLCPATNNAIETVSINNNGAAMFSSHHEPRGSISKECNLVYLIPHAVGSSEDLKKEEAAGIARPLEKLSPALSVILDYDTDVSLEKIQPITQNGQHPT

[3] = molecular target: T2, Muscarinic acetylcholine receptor M2 (Homo sapiens, UniProt P08172); format: functional, cell-based
T2 sequence (P08172 whole entry): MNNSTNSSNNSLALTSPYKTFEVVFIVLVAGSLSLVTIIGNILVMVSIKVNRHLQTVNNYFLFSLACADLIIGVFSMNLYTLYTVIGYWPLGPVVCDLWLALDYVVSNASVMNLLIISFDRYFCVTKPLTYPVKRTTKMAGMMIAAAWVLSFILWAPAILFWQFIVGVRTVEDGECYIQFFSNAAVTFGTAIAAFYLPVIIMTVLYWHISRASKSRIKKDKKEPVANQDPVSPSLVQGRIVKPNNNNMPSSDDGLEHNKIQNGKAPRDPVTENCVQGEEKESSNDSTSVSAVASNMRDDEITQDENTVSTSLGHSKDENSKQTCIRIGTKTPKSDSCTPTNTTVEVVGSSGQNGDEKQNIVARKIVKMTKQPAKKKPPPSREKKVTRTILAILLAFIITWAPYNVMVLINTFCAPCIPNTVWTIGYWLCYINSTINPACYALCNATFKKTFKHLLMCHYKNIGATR

Thromboxane A2 receptor = molecular target: T3, Thromboxane A2 receptor (Homo sapiens, UniProt P21731)
T3 sequence (P21731 whole entry): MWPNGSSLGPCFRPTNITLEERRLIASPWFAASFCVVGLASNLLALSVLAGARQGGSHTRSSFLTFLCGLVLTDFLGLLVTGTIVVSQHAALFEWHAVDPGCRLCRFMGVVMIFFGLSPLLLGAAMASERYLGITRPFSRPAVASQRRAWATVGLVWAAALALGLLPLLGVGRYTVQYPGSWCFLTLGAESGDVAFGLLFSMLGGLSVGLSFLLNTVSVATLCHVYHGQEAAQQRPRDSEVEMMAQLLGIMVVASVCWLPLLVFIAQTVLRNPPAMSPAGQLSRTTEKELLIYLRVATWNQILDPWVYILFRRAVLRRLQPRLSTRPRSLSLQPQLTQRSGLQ

[4] = molecular target: 5-hydroxytryptamine receptor 2A (Homo sapiens, UniProt P28223); format: functional, cell-based
Sequence of 5-hydroxytryptamine receptor 2A (P28223 whole entry): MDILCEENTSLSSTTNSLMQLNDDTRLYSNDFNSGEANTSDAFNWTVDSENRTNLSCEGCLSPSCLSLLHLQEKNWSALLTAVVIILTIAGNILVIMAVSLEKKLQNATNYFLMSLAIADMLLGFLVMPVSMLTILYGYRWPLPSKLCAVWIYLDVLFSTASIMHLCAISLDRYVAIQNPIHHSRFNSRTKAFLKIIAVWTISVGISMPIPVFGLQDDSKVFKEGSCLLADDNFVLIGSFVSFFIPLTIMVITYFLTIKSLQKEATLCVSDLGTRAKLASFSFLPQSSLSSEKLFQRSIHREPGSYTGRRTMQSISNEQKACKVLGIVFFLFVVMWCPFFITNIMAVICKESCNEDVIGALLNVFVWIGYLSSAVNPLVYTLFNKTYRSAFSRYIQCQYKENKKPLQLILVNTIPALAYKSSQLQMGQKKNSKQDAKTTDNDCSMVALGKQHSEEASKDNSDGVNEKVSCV

[5] = molecular target: T2, Muscarinic acetylcholine receptor M2; format: functional, cell-based; remark: listed apart in the source
[6] = molecular target: T4, Cholecystokinin receptor type A (Homo sapiens, UniProt P32238)
T4 sequence (P32238 whole entry): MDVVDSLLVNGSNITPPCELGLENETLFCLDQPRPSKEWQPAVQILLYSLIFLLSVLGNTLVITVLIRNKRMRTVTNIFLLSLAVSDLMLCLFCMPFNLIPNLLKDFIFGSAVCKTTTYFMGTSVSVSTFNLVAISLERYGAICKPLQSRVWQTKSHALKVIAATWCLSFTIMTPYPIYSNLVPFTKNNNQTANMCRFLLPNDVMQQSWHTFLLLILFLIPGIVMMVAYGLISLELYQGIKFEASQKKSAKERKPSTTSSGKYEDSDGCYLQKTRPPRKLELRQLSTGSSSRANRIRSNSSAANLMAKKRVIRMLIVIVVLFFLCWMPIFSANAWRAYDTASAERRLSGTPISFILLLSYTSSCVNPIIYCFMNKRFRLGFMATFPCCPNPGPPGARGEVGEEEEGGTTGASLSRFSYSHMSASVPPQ

[7] = molecular target: Muscarinic acetylcholine receptor M3 (Homo sapiens, UniProt P20309)
Sequence of Muscarinic acetylcholine receptor M3 (P20309 whole entry): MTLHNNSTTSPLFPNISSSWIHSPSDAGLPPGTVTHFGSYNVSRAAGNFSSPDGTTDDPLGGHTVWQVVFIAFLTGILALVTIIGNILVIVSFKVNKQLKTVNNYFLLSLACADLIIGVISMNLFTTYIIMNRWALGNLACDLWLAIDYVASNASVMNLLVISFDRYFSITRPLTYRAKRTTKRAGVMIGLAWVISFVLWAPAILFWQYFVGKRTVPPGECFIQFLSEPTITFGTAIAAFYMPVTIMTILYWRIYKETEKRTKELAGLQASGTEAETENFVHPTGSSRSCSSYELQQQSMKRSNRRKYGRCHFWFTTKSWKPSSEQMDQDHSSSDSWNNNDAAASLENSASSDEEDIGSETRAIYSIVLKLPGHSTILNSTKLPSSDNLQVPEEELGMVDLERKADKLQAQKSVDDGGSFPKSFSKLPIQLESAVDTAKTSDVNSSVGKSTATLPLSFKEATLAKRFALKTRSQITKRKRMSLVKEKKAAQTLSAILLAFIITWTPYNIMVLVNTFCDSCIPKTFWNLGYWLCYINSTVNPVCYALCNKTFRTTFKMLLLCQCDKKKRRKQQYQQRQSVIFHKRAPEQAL

[8] = molecular target: T5, Alpha-2A adrenergic receptor (Homo sapiens, UniProt P08913); format: functional, cell-based
T5 sequence (P08913 whole entry): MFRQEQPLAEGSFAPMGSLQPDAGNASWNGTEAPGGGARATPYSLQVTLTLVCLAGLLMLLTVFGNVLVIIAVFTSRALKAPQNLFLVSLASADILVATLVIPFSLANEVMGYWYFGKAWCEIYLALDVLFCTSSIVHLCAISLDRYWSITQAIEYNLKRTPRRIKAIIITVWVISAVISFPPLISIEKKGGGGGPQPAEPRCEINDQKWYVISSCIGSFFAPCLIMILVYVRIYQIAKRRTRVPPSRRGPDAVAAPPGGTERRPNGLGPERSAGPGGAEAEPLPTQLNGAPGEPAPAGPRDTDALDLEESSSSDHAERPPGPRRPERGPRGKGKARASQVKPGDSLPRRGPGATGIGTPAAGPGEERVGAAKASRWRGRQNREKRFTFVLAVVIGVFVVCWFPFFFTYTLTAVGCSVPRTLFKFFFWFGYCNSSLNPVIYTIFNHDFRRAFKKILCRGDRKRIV

[9] = molecular target: T6, Alpha-2B adrenergic receptor (Homo sapiens, UniProt P18089)
T6 sequence (P18089 whole entry): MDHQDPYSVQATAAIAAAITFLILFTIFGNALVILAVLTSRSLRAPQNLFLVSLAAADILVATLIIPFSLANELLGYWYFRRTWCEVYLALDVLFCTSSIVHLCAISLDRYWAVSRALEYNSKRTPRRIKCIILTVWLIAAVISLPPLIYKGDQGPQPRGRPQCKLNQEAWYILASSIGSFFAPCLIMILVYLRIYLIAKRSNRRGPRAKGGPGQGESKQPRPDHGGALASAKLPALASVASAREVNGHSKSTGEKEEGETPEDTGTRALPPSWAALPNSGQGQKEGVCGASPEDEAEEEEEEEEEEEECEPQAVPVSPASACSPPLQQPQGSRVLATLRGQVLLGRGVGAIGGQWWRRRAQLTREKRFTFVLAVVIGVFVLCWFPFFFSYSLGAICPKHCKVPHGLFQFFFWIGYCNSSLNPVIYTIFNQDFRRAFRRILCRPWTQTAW
Also: assay procedure not described here.

Sequence of Adenosine receptor A2a (P29274 whole entry): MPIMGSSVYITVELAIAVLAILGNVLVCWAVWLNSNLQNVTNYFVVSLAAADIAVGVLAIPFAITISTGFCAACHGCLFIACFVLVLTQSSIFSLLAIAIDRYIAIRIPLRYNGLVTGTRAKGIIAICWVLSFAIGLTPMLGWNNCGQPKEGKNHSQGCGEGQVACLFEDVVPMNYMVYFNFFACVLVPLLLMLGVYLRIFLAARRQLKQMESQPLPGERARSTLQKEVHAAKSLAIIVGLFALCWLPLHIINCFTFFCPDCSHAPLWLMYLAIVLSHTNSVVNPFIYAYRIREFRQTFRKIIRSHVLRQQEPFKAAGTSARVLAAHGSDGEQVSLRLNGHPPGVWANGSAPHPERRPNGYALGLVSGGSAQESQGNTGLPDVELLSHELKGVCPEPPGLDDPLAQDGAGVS

Structure (SMILES) | AC50 (Adenosine receptor A2a) | AC50 [1] | AC50 [2] | AC50 (D(1A) dopamine receptor) | AC50 [3] | AC50 (Thromboxane A2 receptor) | AC50 [4] | AC50 [5] | AC50 [6] | AC50 [7] | AC50 [8] | AC50 [9]
CC/C=C\C/C=C\C/C=C\CCCCCCCC(=O)O [LINOLENIC ACID] | > 30 µM | > 30 µM | > 30 µM | > 30 µM | > 30 µM | > 30 µM | > 30 µM | > 30 µM | > 30 µM | > 30 µM | > 30 µM | > 30 µM
CC1=CC(=O)c2ccccc2C1=O [MENADIONE] | > 30 µM | > 10 µM | > 10 µM | > 10 µM | > 10 µM | > 10 µM | > 10 µM | > 10 µM | > 10 µM | > 30 µM | > 10 µM | > 10 µM
CC(Cc1ccccc1)NCCC(c1ccccc1)c1ccccc1 (centres undefined) [PRENYLAMINE] | > 30 µM | > 30 µM | 3 µM | > 30 µM | > 10 µM | > 30 µM | > 30 µM | > 10 µM | > 30 µM | > 10 µM | > 10 µM | 1.7 µM
O=C(CCCCC(=O)Nc1c(I)cc(I)c(C(=O)O)c1I)Nc1c(I)cc(I)c(C(=O)O)c1I [IODIPAMIDE] | > 10 µM | > 10 µM | > 10 µM | > 30 µM | > 10 µM | > 10 µM | > 10 µM | > 10 µM | > 10 µM | > 30 µM | > 10 µM | > 10 µM
C#CCN[C@@H]1CCc2ccccc21 [RASAGILINE] | > 30 µM | > 30 µM | > 30 µM | > 30 µM | > 30 µM | > 30 µM | > 30 µM | > 30 µM | > 30 µM | > 30 µM | > 30 µM | 8.79 µM
CCC(C(=O)O)c1ccc(CC(C)C)cc1 (centres undefined) [BUTIBUFEN] | > 30 µM | > 30 µM | > 30 µM | > 30 µM | > 30 µM | > 30 µM | > 30 µM | > 30 µM | > 30 µM | > 30 µM | > 30 µM | > 30 µM
O=C(C[S+]([O-])C(c1ccccc1)c1ccccc1)NO (centres undefined) | > 30 µM | > 30 µM | > 30 µM | > 30 µM | > 30 µM | > 30 µM | > 30 µM | > 30 µM | > 30 µM | > 30 µM | > 30 µM | > 30 µM

Reference: ChEMBL document CHEMBL5291721, “A preclinical secondary pharmacology resource illuminates target-adverse drug reaction associations of marketed drugs” (Nat Commun, 2023)
